Measurements as given in PMC12881674, “Activation of TRPV3 channels in bladder cancer cells stimulates ATP release” (Molecular Pharmacology, 2025).
Read-outs that look alike come from different tables or passages of the source.

Target: T1, TRPV3 in KU-19-19 cells (Homo sapiens, UniProt Q8NET8)
T1 construct: host or cells: KU-19-19
T1 sequence (Q8NET8 1-790): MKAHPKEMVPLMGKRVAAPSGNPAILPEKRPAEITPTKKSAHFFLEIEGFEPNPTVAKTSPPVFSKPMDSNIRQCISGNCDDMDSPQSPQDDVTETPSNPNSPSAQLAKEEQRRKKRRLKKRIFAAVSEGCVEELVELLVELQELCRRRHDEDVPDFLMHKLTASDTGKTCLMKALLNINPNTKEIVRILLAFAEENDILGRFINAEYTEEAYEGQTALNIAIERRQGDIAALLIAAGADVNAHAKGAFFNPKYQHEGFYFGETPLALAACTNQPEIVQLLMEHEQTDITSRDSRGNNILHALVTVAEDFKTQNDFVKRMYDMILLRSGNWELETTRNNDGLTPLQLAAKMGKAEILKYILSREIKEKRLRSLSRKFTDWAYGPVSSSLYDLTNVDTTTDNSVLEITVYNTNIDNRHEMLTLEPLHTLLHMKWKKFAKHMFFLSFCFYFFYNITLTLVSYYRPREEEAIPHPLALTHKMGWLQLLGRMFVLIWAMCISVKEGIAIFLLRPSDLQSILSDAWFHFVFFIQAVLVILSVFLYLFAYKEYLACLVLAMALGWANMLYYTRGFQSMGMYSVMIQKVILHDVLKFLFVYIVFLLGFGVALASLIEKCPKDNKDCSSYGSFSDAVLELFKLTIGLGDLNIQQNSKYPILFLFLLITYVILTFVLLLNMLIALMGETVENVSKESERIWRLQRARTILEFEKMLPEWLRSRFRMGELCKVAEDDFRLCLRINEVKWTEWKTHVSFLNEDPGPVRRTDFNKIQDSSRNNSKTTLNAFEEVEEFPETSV
Assay: calcium assay concentration-response in KU-19-19 cells
Type: cell-based
Settings: read-out: EC50 for AV3-1-induced TRPV3 activation in KU-19-19 cells
Procedure: Supplementation of the cellular cholesterol content in KU-19-19 cells was performed by adding cholesterol-loaded methyl-β-cyclodextrin (MβCD) to the cells. Cholesterol was dissolved in ethanol (20 mg/mL) by heating at 65 °C for 15 minutes. The cholesterol solution was then added dropwise to a 250 mM MβCD solution prepared in phosphate-buffered solution (PBS; Sigma Aldrich) at a 1:4 (v/v) ratio, yielding a stock containing 200 mM MβCD-cholesterol. KU-19-19 cells were incubated for 15 minutes at 37 °C in HBS containing 2.5 mM MβCD-cholesterol. As a control, KU-19-19 cells were incubated in HBS without MβCD-cholesterol supplement under the same conditions.
All fluorometric Ca^2+ assays were performed in HBS buffer at room temperature. […] For the primary compound screening and the generation of concentration-response analyses, a robotic liquid handling station (Freedom Evo 150; Tecan) with a built-in custom-made fluorescence plate imager was used. […] Fluorescence was excited using a 470-nm light-emitting diode, and emitted light was imaged through a 515-nm–long pass filter with a cooled Zyla 5.5 camera (Andor). Fluorescence was recorded and processed under the control of the μ-Manager 2.0 gamma software (https://micro-manager.org.[28]). After recording baseline fluorescence, compounds were dispensed into the wells via the liquid handling device. […]

EC50 (cells not supplemented with cholesterol): 19 ± 1.5 µM | EC50 (cholesterol supplementation (2.5 mM MβCD-cholesterol)): 6.3 ± 1.9 µM
Structure (SMILES): COC(=O)C12CN(Cc3ccccc3)CC1(C(=O)OC)CN(Cc1ccccc1)C2 (centres unmarked) [AV3-1]
